Where “and” joins values, the source holds several entries; their conditions need not be identical. Identical values can stand only once.
What was measured:
[1] = Lipophilicity (logD), n-octanol/PBS pH 7.4 shake-flask; format: physicochemical; settings: n-octanol/PBS pH 7.4, room temperature
Method: An aliquot of 0.65 mL PBS and 0.65 mL n-octanol was removed and weighed, and its radioactivity was determined using an autogamma counter (2480 Wizard^2, Perkin-Elmer, Waltham, MA, USA). Each sample from the remaining organic layer was removed and repartitioned until a consistent logD value was obtained. The logD value was calculated by comparing the ratio of counts per minute (cpm)/g of n-octanol to that of PBS, and is expressed as logD = log[cpm/g (n-octanol)/cpm/g (PBS)]. All measurements were performed in triplicate.

[2] = Metabolite analysis in plasma and liver; format: in vivo, mice
Method: Following intravenous injection of [^11C]PK68 (37 MBq, 0.1 mL), the mice (8–9 weeks, 40.1 ± 5.3 g) were killed by cervical dislocation at 5, 15, 30, and 60 min. Blood and liver samples were obtained immediately. Each blood sample was centrifuged in a heparinized tube at 15,000 g for 2 min at 4 °C to separate the plasma. The supernatant was collected in a test tube containing CH3CN, and the resulting mixture was vortexed for 15 s, then centrifuged at 15,000 g for 2 min for deproteinization. The resulting supernatant was collected. Each liver sample was homogenized using a Silent Crusher S homogenizer (Rose scientific, Edmonton, Canada) in ice-cooled saline. The resulting homogenate was mixed with an equivalent amount of CH3CN, and centrifuged at 15,000 g for 2 min for deproteinization. An aliquot of the supernatant (0.1–1.0 mL) obtained from the plasma or liver homogenate was injected into the HPLC system with a radioactivity detector, and analyzed using a Capcell Pak C18 column (4.6 mm i.d. × 250 mm, Shiseido) with a mobile phase [CH3CN/H2O/TFA, (45/55/0.1, v/v/v)] at a flow rate of 1.0 mL/min. The percentage ratio of [^11C]PK68 (tR = 5.0 min) to total radioactivity (corrected for decay) on the HPLC chromatogram was calculated as % = (peak area for [^11C]PK68/total peak area) × 100.

- logD [1]: 4
- unchanged [11C]PK68 in liver ([2]; 5 min after injection): 85%
- unchanged [11C]PK68 in plasma ([2]; 5 min after injection): 85%
- unchanged [11C]PK68 in liver ([2]; 15 min after injection): 67%
- unchanged [11C]PK68 in plasma ([2]; 15 min after injection): 66%
- unchanged [11C]PK68 in liver ([2]; 30 min after injection): 68%
- unchanged [11C]PK68 in plasma ([2]; 30 min after injection): 65%
- unchanged [11C]PK68 in liver ([2]; 60 min after injection): 57%
- unchanged [11C]PK68 in plasma ([2]; 60 min after injection): 57% and > 50%
Structure (SMILES): Cc1ncc(-c2ccc3nc(N[11C](C)=O)sc3c2)cc1NC(=O)OC1CCCCC1 [[^11C]PK68, Cyclohexyl (5-(2-[^11C-carbonyl]acetamidobenzo[d]thiazol-6-yl)-2-methylpyridin-3-yl)carbamate]

From publication PMC8924334, “Synthesis of [^11C]carbonyl-labeled cyclohexyl (5-(2-acetamidobenzo[d]thiazol-6-yl)-2-methylpyridin-3-yl)carbamate ([^11C-carbonyl]PK68) as a potential PET tracer for receptor-interacting protein 1 kinase” (EJNMMI Radiopharmacy and Chemistry, 2022)
